Among the data in patent publication US12269827B1, “Substituted pyrazino[1′,2′:1,5]pyrazolo[4,3-c][1,6]naphthyridines as CK2 inhibitors” (KING FAISAL UNIVERSITY, priority 2023, dated 2025) are IC50 values, retold here.

The structures appear in SMILES notation.

In one assay the test system is MDA-MB-231 (breast). The assay is described as follows: In vitro cytotoxic activity MTT assay, MDA-MB-231. It counts as cell-based. Conditions: Homo sapiens; MDA-MB-231 (breast) cells, exposed for 96 hours; read-out: Cytotoxicity activity IC50 (50% inhibition of cell proliferation). The method, then: (§1) Compounds 1-16 were screened for their in vitro cytotoxic activity utilizing a 3-(4,5-dimethyl-thiazol-2-yl)-2,5-diphenyltetrazolium bromide (MTT) assay against selected cancer human cell lines consisting of PC3 (prostate), HCT116 (colon), A375 (melanoma), H1299 (lung), MIAPaCa-2 (pancreas), HL60 (leukemia), MCF7 (breast), MDA-MB-231 (breast) (T. Mosmann, J. Immunol. Meth., 1983, 65, 55-63). The cells were cultured at 37° C. in RMPI1640 medium supplemented with 10% fetal bovine serum, 50 IU/mL penicillin, and 50 µg/mL streptomycin in a 5% CO2 incubator. All cells were sub-cultured 3 times/week by trypsinisation. Viable cells were seeded and allowed to adhere for 12 hours before a test drug was added in 96-well plates at an initial density of 1.0×10^5 cells/mL. Tumor cell lines were separately exposed to various concentrations of the tested compounds followed by incubation at a temperature of 37° C. during 96 hours inside a medium of fresh RMPI 1640. Cells were subsequently incubated at 37° C. using MTT at 0.5 mg/mL during 4 hours. After removal of supernatant, formazan crystals were dissolved in isopropanol and the optical density was measured at 570 nm. CX-4945 was used as a positive control.

The next assay relates to PC3 (prostate). As to the kind of experiment: In vitro cytotoxic activity MTT assay, PC3. Conditions: Homo sapiens, Prostate cell; PC3 (prostate) cells, exposed for 96 hours; read-out: Cytotoxicity activity IC50 (50% inhibition of cell proliferation). It counts as cell-based. How it is done:
as §1
(In general: Tetrazolium dyes change colour on reduction, which living cells bring about.)

In another assay the test system is A375 (melanoma). The assay is described as follows: In vitro cytotoxic activity MTT assay, A375. The assay is classed as cell-based. Conditions: Homo sapiens, A-375; A375 (melanoma) cells, exposed for 96 hours; read-out: Cytotoxicity activity IC50 (50% inhibition of cell proliferation). How it is done:
as §1

The subject of a further assay is HCT116 (colon). As to the kind of experiment: In vitro cytotoxic activity MTT assay, HCT116. It counts as cell-based. The following applies: Homo sapiens, HCT-116; HCT116 (colon) cells, exposed for 96 hours; read-out: Cytotoxicity activity IC50 (50% inhibition of cell proliferation). The method, then: as §1
The next assay has as its system MCF7 (breast). As to the kind of experiment: In vitro cytotoxic activity MTT assay, MCF7. Conditions: Homo sapiens; MCF7 (breast) cells, exposed for 96 hours; read-out: Cytotoxicity activity IC50 (50% inhibition of cell proliferation). The assay is classed as cell-based. How it is done:
as §1

The subject of a further assay is HL60 (leukemia). The assay is described as follows: In vitro cytotoxic activity MTT assay, HL60. It counts as cell-based. The following applies: Homo sapiens, HL-60; HL60 (leukemia) cells, exposed for 96 hours; read-out: Cytotoxicity activity IC50 (50% inhibition of cell proliferation). The method, then: as §1
The subject of another assay is H1299 (lung). As to the kind of experiment: In vitro cytotoxic activity MTT assay, H1299. The following applies: Homo sapiens, NCI-H1299; H1299 (lung) cells, exposed for 96 hours; read-out: Cytotoxicity activity IC50 (50% inhibition of cell proliferation). The assay is classed as cell-based. How it is done: as §1
The test system of another assay is MIAPaCa-2 (pancreas). The assay is described as follows: In vitro cytotoxic activity MTT assay, MIAPaCa-2. It counts as cell-based. The following applies: Homo sapiens, MIA PaCa-2; MIAPaCa-2 (pancreas) cells, exposed for 96 hours; read-out: Cytotoxicity activity IC50 (50% inhibition of cell proliferation). The method, then:
as §1

Assay [1] deals with T1, recombinant human CK2 (RRββ-holoenzyme) (Homo sapiens, UniProt P68400).
T1 construct: purchased Millipore
As to the kind of experiment: CK2 Kinase Assay (33P-ATP, substrate peptide RRRDDDSDDD). The assay is classed as biochemical. The following applies: final ATP concentration 15 μM, 10 minutes at 30° C.; read-out: protein kinase CK2 IC50. How it is done: CK2 Kinase Assay was conducted using the protocol as described in Pierre F. et al; J. Med. Chem. 2011, 54, 635-654. The tested compounds in aqueous solution were added at a volume of 10 μL to a reaction mixture comprising 10 μL of assay dilution buffer (ADB; 20 mM MOPS, pH 7.2, 25 mM β-glycerol phosphate, 5 mM EGTA, 1 mM sodium orthovanadate, and 1 mM dithiothreitol), 10 μL of substrate peptide (RRRDDDSDDD, dissolved in ADB at a concentration of 1 mM), 10 μL of recombinant human CK2 (RRββ-holoenzyme, 25 ng dissolved in ADB; Millipore). Reactions were initiated by the addition of 10 μL of ATP solution (90% 75 mMMgCl2, 75 μM ATP (final ATP concentration:15 μM) dissolved in ADB; 10% [γ-33P] ATP (stock 1 mCi/100 μL; 3000 Ci/mmol (Perkin-Elmer) and maintained for 10 minutes at 30° C. The reactions were quenched with 100 μL of 0.75% phosphoric acid and then transferred to and filtered through a phosphor cellulose filter plate (Millipore). After washing each well five times with 0.75% phosphoric acid, the plate was dried under vacuum for 5 min and, following the addition of 15 μL of scintillation fluid to each well, the residual radioactivity was measured using a Wallac […]. The IC50 values were derived from eight concentrations of test inhibitors.

T1 sequence (P68400 whole entry): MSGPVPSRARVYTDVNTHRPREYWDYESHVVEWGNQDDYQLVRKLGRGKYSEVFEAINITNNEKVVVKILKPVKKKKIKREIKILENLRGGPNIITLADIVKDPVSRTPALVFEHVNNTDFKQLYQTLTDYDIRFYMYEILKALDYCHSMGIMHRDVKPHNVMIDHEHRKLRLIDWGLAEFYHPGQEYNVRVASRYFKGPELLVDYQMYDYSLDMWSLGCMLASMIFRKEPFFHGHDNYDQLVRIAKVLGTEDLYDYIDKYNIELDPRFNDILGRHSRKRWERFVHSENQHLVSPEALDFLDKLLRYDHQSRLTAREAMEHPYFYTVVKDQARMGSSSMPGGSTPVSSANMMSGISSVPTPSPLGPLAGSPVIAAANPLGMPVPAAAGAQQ
T1 sequence (P67870 whole entry partner): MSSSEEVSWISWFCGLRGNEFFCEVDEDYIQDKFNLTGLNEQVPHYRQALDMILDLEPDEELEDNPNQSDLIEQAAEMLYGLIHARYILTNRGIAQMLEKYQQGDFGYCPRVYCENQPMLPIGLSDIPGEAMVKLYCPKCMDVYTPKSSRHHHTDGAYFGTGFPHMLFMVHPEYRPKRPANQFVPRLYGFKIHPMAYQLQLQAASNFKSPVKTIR

Take `Clc1cccc(Nc2nc3ccncc3c3nn4ccncc4c23)c1` [Compound 1, N-(3-chlorophenyl)pyrazino[1′,2′:1,5]pyrazolo[4,3-c][1,6]naphthyridin-6-amine]: the IC50 in the assay with MDA-MB-231 (breast) stood at 4600 nM; in the assay with PC3 (prostate), 1300 nM; in the assay with A375 (melanoma), 3700 nM; in the assay with HCT116 (colon), 1800 nM; with MCF7 (breast), 5700 nM; in the assay on HL60 (leukemia) it was 4400 nM. The figures for the IC50 (in the assay with H1299 (lung); with MIAPaCa-2 (pancreas); in assay [1]) were 1500 nM, 1200 nM and 38 nM, respectively.
